Patent publication US20100062970A1, “SYNTHESIS OF PROPYL PHENOXY ETHERS AND USE AS DELIVERY AGENTS” (Emisphere Technologies Inc., priority 2006, published 2010)

System: whole blood glucose
Test: In vivo delivery of insulin to fasted rats via oral gavage (whole blood glucose)
Parameters: species or system rat
Conditions: male Sprague-Dawley rats, delivery agent 200 mg/kg with insulin (human recombinant) 0.5 mg/kg
Procedure: Insulin (human recombinant) was obtained from ICN Biomedicals (Aurora, Ohio) as a bulk powder. To prepare stock solutions, insulin was dissolved in deionized water (pH˜6.5) to obtain a concentration of 15 mg/ml. Stock solutions were kept frozen at −20° C. in 1.0-ml aliquots until used. For dosing solutions, delivery agent was dissolved in deionized water to obtain a final concentration of 200 mg/ml. The free acid form of delivery agent was converted to the sodium salt by adding one equivalent of sodium hydroxide. Solutions were vortexed, sonicated, and heated, and if necessary, additional sodium hydroxide was added in μl quantities to achieve uniform solubility. Solutions were adjusted to a pH of 3.5-8.5 by the addition of either hydrochloric acid or sodium hydroxide. Insulin stock (typically 66.7 μls) was then added to the delivery agent solution to obtain a final concentration of 0.5 mg/ml. After solubilization and drug addition, solutions were brought to final volume by the addition of deionized water.
Insulin was administered to male, Sprague-Dawley rats either alone or in combination with an Emisphere delivery agent by oral gavage (PO). Rats were fasted for 18-24 hours prior to dosing. For dosing, a Rusch 8 French catheter was cut to 11 cm in length and adapted to fit a 1-ml syringe. The syringe was filled with dosing solution and the catheter was wiped dry of excess solution. The catheter was inserted into the rat mouth and fed down the esophagus (10.0 cm). The dosing solution was delivered by pressing the syringe plunger while holding the rat in an upright position.
During blood sampling, rats were exposed briefly (˜10 sec) to carbon dioxide until prostrate, immediately prior to each sampling time point. For blood sampling, a 77-mm capillary tube was inserted into the retroorbital sinus. Typically, blood samples were collected prior to dosing (time 0) and at 15, 30, 45, and 60 minutes after dosing. Samples were collected into Capiject® tubes (Terumo Corporation, Tokyo, Japan) containing a clot activator (red top, serum separator tubes). Samples were allowed to clot for ˜20 min at 4° C. After clotting, samples were centrifuged at 10,000 rpm for 4 minutes at 6° C. in order to separate the serum. Serum was collected into eppendorf tubes and frozen at −20° C. until assayed.
In order to determine the pharmacodynamic response, a hand-held glucometer (OneTouch Ultra, LifeScan® (Johnson & Johnson, New Brunswick, N.J.)) was used to measure whole blood glucose after administration of insulin or insulin and delivery agent. Samples were collected either from the retroorbital sinus (see Sample collection and handling: Insulin) or from the tail artery (i.e. tail clip). For tail clipping, the tip of the tail was severed approximately 5 mm from the tip using a scalpel blade. After discarding the first drop of blood, a small sample (˜5-10 μl) was touched to the glucometer test strip (OneTouch Ultra, LifeScan) and a blood glucose reading was generated by the meter. For each subsequent sampling time point, the clot formed at the tip of the tail was broken up and a fresh sample was collected. Typically, samples were collected prior to dosing (time 0) and at 15, 30, 45, and 60 minutes after dosing.
Concentrations of insulin were quantified in rat serum using a sandwich-type ELISA (kit; Diagnostic Systems Laboratories, Inc., Webster, Tex.). The calibrated assay range was 12.5-250.0 μlU/mL. Serum from rats was obtained internally from stock animals and used to prepare calibration standards and low and high quality control samples (LQC, HQC). The low and high quality control samples for the second curve were prepared at 30 and 150 μlU/mL, respectively. Calibration standards were prepared fresh daily and quality control samples were stored at a nominal temperature of −20° C. Concentration values (test samples) were read from the standard curve, averaged for each time point (n=5), and plotted as mean serum concentration of insulin (±SEM) versus time. […]

Row | Structure (SMILES) | % Glucose Cmin (Rat)
1 | O=C(O)CCOc1ccccc1Cl [Compound 1, 3-2-Chloro-phenoxy-propionic acid] | −47.0%
2 | Cc1ccc(OCCC(=O)O)cc1C [Compound 2, 3-(3,4-Dimethyl-phenoxy)-propionic acid] | −48.2%
3 | Cc1cc(C)cc(OCCC(=O)O)c1 [Compound 3, 3-(3,5-Dimethyl-phenoxy)-propionic acid] | −16.6%
4 | Cc1ccc(C)c(OCCC(=O)O)c1 [Compound 4, 3-(2,5-Dimethyl-phenoxy)-propionic acid] | −39.6%
5 | Cc1cccc(OCCC(=O)O)c1C [Compound 5, 3-(2,3-Dimethyl-phenoxy)-propionic acid] | −22.2%
6 | Cc1cccc(OCCC(=O)O)c1 [Compound 6, 3-m-Tolyloxy-propionic acid] | −29.3%
7 | Cc1cccc(C)c1OCCC(=O)O [Compound 7, 3-(2,6-Dimethyl-phenoxy)-propionic acid] | −42.1%
8 | Cc1ccccc1OCCC(=O)O [Compound 8, 3-o-Tolyloxy-propionic acid] | −24.2%
9 | Cc1ccc(OCCC(=O)O)c(C)c1 [Compound 9, 3-(2,4-Dimethyl-phenoxy)-propionic acid] | −40.3%
